PMC6089501 (Journal of Medicinal Chemistry, 2018)
In brackets after ≈: the same amount, converted by molar mass. Read-outs that look alike come from different tables or passages of the source.

Assays:
M. tuberculosis H37Rv = assay: microbe, parasite or virus in culture; assay type: cell-based, Mycobacterium tuberculosis
[1] = microsomes
[2] = female, C57 Black, mouse, in vivo, iv, 3 mg/kg
Method: (§1) Test compound was dosed as a bolus solution intravenously at 3 mg of free base/kilogram (dose volume 5 mL/kg; dose vehicle Saline or 10% DMSO; 40% PEG400; 50% saline) to female C57 Black (n = 3) or dosed orally by gavage as a solution at 10 mg of free base/kilogram (dose volume 10 mL/kg; dose vehicle 10% DMSO; 40% PEG400; 50% distilled water) to female C57 Black (n = 3/dose level). Blood samples were taken from each mouse tail vein at predetermined time points postdose, mixed with two volumes of distilled water, and stored frozen until UPLC/MS/MS analysis. Pharmacokinetic parameters were derived from the blood concentration time curve using PK Solutions software v 2.0 (Summit Research Services, USA).

[3] = system: Madin Darby Canine Kidney (MDCK)
Vero cells = assay: cells; details: Chlorocebus sabaeus, read-out: VERO IC50
Method: (§2) Compounds were solubilized in DMSO and assayed as a 10-point 3-fold serial dilution. Compounds were incubated with cells for 2 days at 37 °C, 5% CO2. CellTiter-Glo Reagent (Promega) was added and relative luminescent units (RLU) measured.

in vivo = details: female, C57 Black, mouse
Method: as §1

in vitro [4] = details: African green monkey, Vero cytotoxicity
Method: as §2

CYP2C9 = CYP2C9 (Homo sapiens, UniProt P11712); assay: in vitro
CYP2C19 = CYP2C19 (Homo sapiens, UniProt P33261); assay: in vitro
in vitro [5] = details: dog, MDCK-MDR1
CYP 2D6 = CYP 2D6 (Homo sapiens, UniProt P10635); assay: biochemical
CYP 1A2 = target: T1, CYP 1A2 (Homo sapiens, UniProt P05177); assay: CYP inhibition 1A2
T1 sequence (P05177 1-516): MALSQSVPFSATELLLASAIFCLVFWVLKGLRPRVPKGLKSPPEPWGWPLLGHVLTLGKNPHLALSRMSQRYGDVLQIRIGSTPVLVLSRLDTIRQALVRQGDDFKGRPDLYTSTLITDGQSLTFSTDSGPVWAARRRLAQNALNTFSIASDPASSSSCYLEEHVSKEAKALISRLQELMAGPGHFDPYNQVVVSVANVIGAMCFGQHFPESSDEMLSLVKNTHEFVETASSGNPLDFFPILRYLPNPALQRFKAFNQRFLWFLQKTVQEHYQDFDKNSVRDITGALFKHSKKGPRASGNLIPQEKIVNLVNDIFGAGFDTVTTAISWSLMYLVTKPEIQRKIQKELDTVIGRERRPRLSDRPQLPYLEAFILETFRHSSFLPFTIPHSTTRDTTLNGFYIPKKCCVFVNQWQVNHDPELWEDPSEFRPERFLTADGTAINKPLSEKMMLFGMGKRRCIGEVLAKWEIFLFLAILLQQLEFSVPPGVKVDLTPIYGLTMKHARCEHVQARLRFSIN

CYP2C9, sequence (P11712 whole entry): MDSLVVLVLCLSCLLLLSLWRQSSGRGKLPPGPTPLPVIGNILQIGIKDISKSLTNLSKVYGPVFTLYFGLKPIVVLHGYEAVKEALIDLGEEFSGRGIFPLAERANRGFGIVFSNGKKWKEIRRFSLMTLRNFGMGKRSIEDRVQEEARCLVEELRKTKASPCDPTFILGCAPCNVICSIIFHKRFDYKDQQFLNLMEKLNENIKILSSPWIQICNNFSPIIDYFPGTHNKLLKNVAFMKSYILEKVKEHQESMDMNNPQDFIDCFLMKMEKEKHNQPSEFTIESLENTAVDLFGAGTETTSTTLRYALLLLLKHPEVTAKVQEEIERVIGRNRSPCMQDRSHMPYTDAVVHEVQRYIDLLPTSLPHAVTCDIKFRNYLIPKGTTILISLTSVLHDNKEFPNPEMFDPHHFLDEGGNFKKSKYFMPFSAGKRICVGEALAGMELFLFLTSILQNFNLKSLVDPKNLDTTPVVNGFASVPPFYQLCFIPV
CYP 2D6, sequence (P10635 whole entry): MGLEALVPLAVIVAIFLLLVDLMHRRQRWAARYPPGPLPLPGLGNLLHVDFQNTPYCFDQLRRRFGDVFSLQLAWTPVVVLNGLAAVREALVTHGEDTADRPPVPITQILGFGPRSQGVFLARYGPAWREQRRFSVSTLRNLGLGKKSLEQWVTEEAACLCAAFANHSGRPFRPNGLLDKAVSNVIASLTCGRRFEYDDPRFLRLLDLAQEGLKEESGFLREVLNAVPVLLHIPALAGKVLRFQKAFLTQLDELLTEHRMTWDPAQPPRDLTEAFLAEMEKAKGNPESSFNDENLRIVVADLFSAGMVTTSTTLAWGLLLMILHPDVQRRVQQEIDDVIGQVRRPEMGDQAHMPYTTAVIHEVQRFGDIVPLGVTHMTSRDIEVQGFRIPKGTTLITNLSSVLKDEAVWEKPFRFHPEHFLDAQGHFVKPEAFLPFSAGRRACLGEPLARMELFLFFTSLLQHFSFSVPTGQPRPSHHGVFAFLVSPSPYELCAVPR
CYP2C19, sequence (P33261 whole entry): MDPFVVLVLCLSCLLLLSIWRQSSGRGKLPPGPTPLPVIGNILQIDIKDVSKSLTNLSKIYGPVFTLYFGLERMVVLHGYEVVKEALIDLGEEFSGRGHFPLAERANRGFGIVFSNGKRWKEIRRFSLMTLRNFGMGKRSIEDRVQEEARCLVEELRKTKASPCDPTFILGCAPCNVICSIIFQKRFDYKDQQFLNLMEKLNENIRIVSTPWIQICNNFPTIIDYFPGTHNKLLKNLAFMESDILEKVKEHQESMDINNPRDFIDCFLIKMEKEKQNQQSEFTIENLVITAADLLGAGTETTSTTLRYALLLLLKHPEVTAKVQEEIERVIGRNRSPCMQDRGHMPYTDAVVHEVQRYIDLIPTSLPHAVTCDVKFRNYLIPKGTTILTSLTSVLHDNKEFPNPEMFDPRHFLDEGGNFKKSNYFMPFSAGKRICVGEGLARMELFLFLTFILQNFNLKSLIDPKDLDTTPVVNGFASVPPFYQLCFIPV

NC(=O)c1sc(N2CCOCC2)cc1OCCc1ccccc1 [Compound 1, 5-Morpholino-3-phenethoxythiophene-2-carboxamide]
MIC (M. tuberculosis H37Rv; Mycobacterium tuberculosis, H37RV, read-out: H37Rv MIC): 0.13 µg/mL | MIC90 (M. tuberculosis H37Rv; Mycobacterium tuberculosis, H37RV, read-out: MIC (MIC90)): 0.72 µM (≈ 0.239 µg/mL) | MIC (M. tuberculosis H37Rv; Mycobacterium tuberculosis, H37RV, read-out: MIC WT): 1.3 µM | IC90 (M. tuberculosis H37Rv; Mycobacterium tuberculosis, H37RV, read-out: TB-IC90_OD GEOM_MEAN): 0.608 µM | MIC (H37RvLP) (M. tuberculosis H37Rv; n = 14): 0.72 ± 0.30 (n = 14) | Cli mouse (female, CD1, mouse, pH 7.4): 19 mL.min^–1.g^–1 | scaled Clpre (female, CD1, mouse, pH 7.4): 81 mL/min/kg | CL mouse MEAN (mouse, microsomes): 18.63 mL/min/g | Microsomal clearance, Mouse (mouse, microsomes): Mouse = 19 mL·min^−1·g^−1 | in vitro mouse Clint (mouse, microsomes): 19 mL/min/g | Microsomal clearance, Human [1]: Human = 3.5 mL·min^−1·g^−1 | CLB [2]: 10 mL/min/kg | T1/2 [2]: 42 min | P-glycoprotein (P-gp) efflux (in words) ([3]; MDCK-MDR1): no likely P-glycoprotein (P-gp) efflux issues | permeability (in words) ([3]; MDCK-MDR1): good permeability | P-gp Efflux B→ A/A → B ([3]; dog, MDCK): 0.8 | IC50 (Vero cells): > 100 µM | AUC (in vivo; iv, 3 mg/kg): 4830 ng·h/mL | bioavailability (in vivo; po, 10 mg/kg): 0.5% | IC50 (in vitro [4]): > 100 µM | IC50 (CYP2C9): 7.94 µM | IC50 (CYP2C19): 1.26 µM | Papp A→B (in vitro [5]): 45 ×10⁻⁶ cm/s | Papp B→A (in vitro [5]): 37 ×10⁻⁶ cm/s | IC50 (CYP 2D6): 10 µM | IC50 (CYP 1A2): > 10 µM
